Some test systems named below: Hs-578T; K562; UACC-257; SNB-19; SN12C; ACHN; M14; MDA-MB-435; SK-MEL-5; OVCAR-4; SR; A549; NCI-H226; BT-549; HOP-92; HCT-15; SF-268; RXF 393; U-251; SW-620.
Common to all, as to experiment: NCI anticancer screen, dose series, 48 h

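Growth conditions: 96-well plates. Treatment: test compound, 48 hours, 5 concentrations. Analysis: linear interpolation between bracketing concentrations; unreached endpoints set to highest concentration. Here, GI50 denotes the concentration required for 50% inhibition of growth.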 Calls of active or inactive are those of the source. No stated cut-off is given here; in the data, active = GI50 up to about 1.1 µM and inactive = higher. Some results are limits rather than exact numbers.

With `Cc1c(C#N)c2nnn(-c3ccccc3)c(=O)n2c1-c1ccccc1`, the GI50 is 4.51 µM (inactive) in the assay with Hs-578T; 0.236 µM (active) in the assay with K562; 25.4 µM (inactive) with UACC-257; 3.31 µM (inactive) with SNB-19; 4.65 µM (inactive) in the assay on SN12C; 8.97 µM (inactive) with ACHN. Besides, the GI50 was 0.959 µM (active) in the assay on M14; 0.307 µM (active) in the assay on MDA-MB-435; 0.471 µM (active) in the assay with SK-MEL-5; > 41.5 µM (inactive) with OVCAR-4; 0.863 µM (active) in the assay on SR; 1.29 µM (inactive) in the assay on A549. The GI50 was 2.84 µM (inactive) in the assay on NCI-H226; 5.42 µM (inactive) in the assay with BT-549; 31.3 µM (inactive) with HOP-92; 1.85 µM with HCT-15; 7.85 µM (inactive) in the assay on SF-268; 2.48 µM (inactive) with RXF 393.

For the compound `O=C(O)c1ccc(Nc2nc3cc(C(F)(F)F)ccc3n3cccc23)cc1`, the GI50 was 44.4 µM (inactive) with Hs-578T; 15.3 µM (inactive) in the assay on K562; 30.2 µM (inactive) with UACC-257; 54 µM (inactive) with SNB-19; 24.9 µM (inactive) in the assay with ACHN; 25.1 µM (inactive) in the assay on M14. For the same compound, the GI50 was 34.7 µM (inactive) in the assay on MDA-MB-435; 21.3 µM (inactive) in the assay on U-251; 34.7 µM (inactive) in the assay on SW-620; 17.1 µM (inactive) in the assay on SK-MEL-5; 14.3 µM (inactive) in the assay on SR; 30.5 µM (inactive) in the assay with A549. The GI50 is 35.7 µM (inactive) in the assay with BT-549; 64.6 µM (inactive) with HOP-92; 23.3 µM with HCT-15; 40.6 µM (inactive) in the assay with SF-268; 17.1 µM (inactive) in the assay with RXF 393.

As for `S=C=NC1CCC(c2cc3ccccc3s2)(N2CCCCC2)CC1` (stereo unspecified), the GI50 is 2.08 µM (inactive) with Hs-578T; 0.0546 µM (active) in the assay with K562; 1.73 µM (inactive) in the assay with UACC-257; 2.79 µM (inactive) in the assay on SNB-19; 1.82 µM (inactive) in the assay on SN12C; 1.93 µM (inactive) in the assay with ACHN. Moreover, the GI50 is 1.86 µM (inactive) in the assay with M14; 1.62 µM (inactive) with MDA-MB-435; 2.02 µM (inactive) in the assay on SW-620; 1.56 µM (inactive) in the assay on SK-MEL-5; 1.87 µM (inactive) in the assay on OVCAR-4; 0.071 µM (active) in the assay on SR. Further, the GI50 in the assay on A549 is 3.01 µM (inactive); with BT-549, 2.09 µM (inactive); in the assay with HOP-92 it was 1.68 µM (inactive); in the assay on HCT-15, 1.53 µM; in the assay with SF-268, 2.08 µM (inactive); in the assay with RXF 393 it was 1.72 µM (inactive).

For the compound `COc1cccc(C2c3cc4c(cc3OC(NNC(N)=O)C2C)OCO4)c1OC` (stereo unspecified), the GI50 was 19.7 µM (inactive) in the assay on Hs-578T; 19.5 µM (inactive) in the assay on K562; 27.3 µM (inactive) with UACC-257; 29.1 µM (inactive) in the assay with SNB-19; 27 µM (inactive) in the assay with SN12C; 26.9 µM (inactive) with ACHN. Besides, the GI50 in the assay with M14 was 17.1 µM (inactive); in the assay on MDA-MB-435, 19.9 µM (inactive); with U-251, 20 µM (inactive); in the assay with SW-620 it was 22.6 µM (inactive); in the assay on SK-MEL-5 it was 19.6 µM (inactive); with SR, 0.431 µM (active). The GI50 in the assay on A549 is 19.6 µM (inactive); in the assay on NCI-H226 it was 25.3 µM (inactive); with BT-549, 20.1 µM (inactive); in the assay with HOP-92, 19.1 µM (inactive); with HCT-15, 9.23 µM; in the assay on SF-268, 27.7 µM (inactive). Besides, in the assay on RXF 393, the GI50 was 14.1 µM (inactive).

On to `O=c1oc2ccccc2c(O)c1C(C/C(CCN1CCCC1)=N/O)c1ccccc1` (stereo unspecified), for which the GI50 in the assay with Hs-578T is > 100 µM (inactive); in the assay with K562 it was > 31.6 µM (inactive); in the assay on UACC-257, > 100 µM (inactive); in the assay with SNB-19 it was > 100 µM (inactive); in the assay with SN12C, > 100 µM (inactive); in the assay on ACHN, > 100 µM (inactive). Also, the GI50 in the assay on M14, in the assay with MDA-MB-435, with U-251, in the assay with SW-620, in the assay with SK-MEL-5 and in the assay with OVCAR-4 was > 100 µM (inactive) throughout. The GI50 in the assay on SR was > 100 µM (inactive); in the assay with A549, > 100 µM (inactive); in the assay with NCI-H226, > 100 µM (inactive); in the assay on BT-549, 31.7 µM (inactive); in the assay with HOP-92, 56.4 µM (inactive); with HCT-15 it was over 100 µM. Moreover, the GI50 in the assay with SF-268 was > 100 µM (inactive).

As for `CCOC(=O)c1nc2c3c(ncn2n1)Oc1c(c(-c2ccccc2)nn1-c1ccccc1)C3c1ccc(OC)c(OC)c1` (stereo unspecified), the GI50 in the assay with Hs-578T was 12.4 µM (inactive); in the assay on K562, 7.24 µM (inactive); in the assay with UACC-257, > 100 µM (inactive); in the assay with SNB-19, 24.3 µM (inactive); in the assay on SN12C, > 100 µM (inactive); with ACHN it was 47 µM (inactive). The GI50 in the assay on M14 was > 100 µM (inactive); in the assay on MDA-MB-435, > 100 µM (inactive); in the assay with U-251, 31.3 µM (inactive); with SW-620, > 100 µM (inactive); with SK-MEL-5 it was 78.9 µM (inactive); in the assay with OVCAR-4, 6.04 µM (inactive). Further, the GI50 in the assay on SR is 51.8 µM (inactive); in the assay on A549, 59.2 µM (inactive); with BT-549, 36.3 µM (inactive); in the assay on HOP-92 it was 41.1 µM (inactive); in the assay on HCT-15, over 100 µM; in the assay with SF-268, 15.3 µM (inactive). In the assay with RXF 393, the GI50 is 23.4 µM (inactive).

In the case of `CCOc1cc(/C=N/c2ccc(Oc3ccc(Cl)cc3)c(Cl)c2)ccc1O`, the GI50 in the assay on Hs-578T was 18.8 µM (inactive); in the assay on UACC-257, 27.1 µM (inactive); in the assay with SNB-19, 25.2 µM (inactive); with SN12C it was 20.8 µM (inactive); in the assay on ACHN it was 32.4 µM (inactive); in the assay on M14, 29.8 µM (inactive). The GI50 in the assay with MDA-MB-435 is 35.3 µM (inactive); in the assay on U-251, 21.7 µM (inactive); in the assay on SW-620, 29.6 µM (inactive); with SK-MEL-5 it was 22.3 µM (inactive); in the assay on OVCAR-4 it was 34 µM (inactive); in the assay on SR it was 33.2 µM (inactive). Besides, the GI50 in the assay on A549 was 30.1 µM (inactive); in the assay on NCI-H226, 26.9 µM (inactive); in the assay on BT-549, 17.8 µM (inactive); with HOP-92 it was 19.7 µM (inactive); in the assay with HCT-15, 22.5 µM; in the assay on SF-268, 15.7 µM (inactive).

Turning to `COC(=O)c1c(OC(C)=O)ccc2c1c1cc3ccccc3c(OC(C)=O)c1n2C`, the GI50 with Hs-578T is 4.43 µM (inactive); with K562, 21.4 µM (inactive); in the assay on SNB-19, 68.5 µM (inactive); with SN12C it was 40.6 µM (inactive); in the assay with ACHN it was 8.09 µM (inactive); with M14 it was 29.4 µM (inactive). Moreover, the GI50 in the assay with MDA-MB-435 was 25.6 µM (inactive); with U-251, 61 µM (inactive); in the assay with SK-MEL-5, 3.07 µM (inactive); with OVCAR-4, 19.7 µM (inactive); with SR it was 3.69 µM (inactive); in the assay with A549 it was 19.9 µM (inactive). In addition, the GI50 is 37.2 µM (inactive) with NCI-H226; 14.6 µM (inactive) in the assay on BT-549; 10.3 µM (inactive) with HOP-92; 22.7 µM with HCT-15; 27.7 µM (inactive) with SF-268; 24.8 µM (inactive) in the assay with RXF 393.

Consider `O=C1CC(O)c2c(Br)sc(Br)c21` (stereo unspecified), for which the GI50 is 25.6 µM (inactive) with Hs-578T; 2.8 µM (inactive) in the assay on K562; 3.85 µM (inactive) in the assay with UACC-257; 18.6 µM (inactive) with SNB-19; 17.5 µM (inactive) with SN12C; 16.2 µM (inactive) in the assay with ACHN. The GI50 in the assay with M14 was 13.9 µM (inactive); in the assay with MDA-MB-435 it was 5.58 µM (inactive); in the assay on U-251 it was 4.54 µM (inactive); with SW-620, 1.93 µM (inactive); in the assay with SK-MEL-5, 17.7 µM (inactive); with SR it was 5.25 µM (inactive). Also, the GI50 is 19.3 µM (inactive) in the assay with A549; 29.7 µM (inactive) with BT-549; 17.9 µM (inactive) in the assay with HOP-92; 11.3 µM in the assay on HCT-15; 18.1 µM (inactive) with SF-268; 2.5 µM (inactive) with RXF 393.

With `CCC/C=C/C=C/C(=O)OC1C(C)C2(O)C3C=C(C)C(=O)C3CC(COC(C)=O)=CC2C2C(C)(C)C12OC(=O)C(C)C` (stereo unspecified), the GI50 with Hs-578T was 0.084 µM (active); in the assay with K562, 0.091 µM (active); in the assay with UACC-257, 16.7 µM (inactive); with SNB-19, 25.7 µM (inactive); with SN12C, 11 µM (inactive); in the assay on ACHN, 9.46 µM (inactive). Moreover, the GI50 is 14.1 µM (inactive) in the assay on M14; 0.303 µM (active) with MDA-MB-435; 0.622 µM (active) in the assay on SW-620; 1.84 µM (inactive) in the assay on SK-MEL-5; 22.9 µM (inactive) in the assay with OVCAR-4; 10.7 µM (inactive) in the assay on SR. For the same compound, the GI50 in the assay on A549 is 0.406 µM (active); with NCI-H226, 15.8 µM (inactive); with BT-549 it was 20.7 µM (inactive); with HOP-92 it was 8.81 µM (inactive); in the assay on SF-268 it was 13.8 µM (inactive); in the assay on RXF 393, 17.5 µM (inactive).

In the case of `COc1ccc(C(=O)/C=C/c2ccc(Oc3cc(C(=O)/C=C/c4ccc(O)cc4)c(O)cc3OC)cc2)c(O)c1` [RHUSCHALCONE I], the GI50 in the assay on Hs-578T is 16.7 µM (inactive); in the assay on K562, 3.66 µM (inactive); in the assay on UACC-257, 25.5 µM (inactive); with SNB-19, 8.3 µM (inactive); in the assay with SN12C, 3.74 µM (inactive); in the assay on ACHN, 2.9 µM (inactive). The GI50 was 4.74 µM (inactive) in the assay on M14; 3.55 µM (inactive) in the assay with MDA-MB-435; 3.79 µM (inactive) in the assay on U-251; 4.72 µM (inactive) with SW-620; 4.02 µM (inactive) in the assay with SK-MEL-5; 3.23 µM (inactive) in the assay on OVCAR-4. For the same compound, the GI50 in the assay on SR is 1.92 µM (inactive); with A549, 8.71 µM (inactive); in the assay on BT-549, 10.4 µM (inactive); in the assay on HOP-92 it was 13.9 µM (inactive); with HCT-15, 2.43 µM; with SF-268 it was 5.19 µM (inactive). The GI50 in the assay with RXF 393 was 2.56 µM (inactive).

The values above are taken from ChEMBL document CHEMBL1201862, “PubChem BioAssay data set” (2004).
